Seven compounds from PMC12207370, “Macrocyclic Peptide Probes for Immunomodulatory Protein CD59: Potent Modulators of Bacterial Toxin Activity and Antibody‐Dependent Cytotoxicity” (Angewandte Chemie (International Ed. in English), 2025) can be followed below.

The target in this assay is T1, CD59 (Homo sapiens, UniProt P13987).
T1 construct: Recombinant soluble human CD59 with an additional C-terminal cysteine residue
T1 sequence (P13987 26-102 limits assumed): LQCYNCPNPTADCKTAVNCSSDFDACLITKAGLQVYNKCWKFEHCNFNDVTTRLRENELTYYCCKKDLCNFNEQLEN
Briefly: SPR (Biacore S200) binding to immobilised biotinylated CD59. An excerpt: To identify which of these peptides bound CD59 most tightly, we used a Biacore S200 surface plasmon resonance (SPR) platform to investigate CD59 affinity (Figure 2b), using a known protein binding partner of CD59 (rILYd4) as a benchmark. Four 13‐mer macrocyclic peptides and one 14‐mer macrocyclic peptide were identified with a dissociation constant (K D) lower than that of rILYd4. Considering their fourfold lower molecular weight, these peptides bind with up to 19‐fold greater efficiency compared to rILYd4 (Figure 2b).
Equipment: SPR analysis was performed on a Cytiva Biacore S200. All buffers were prepared using ultra-pure water from a Millipore Elix Q-Gard purification system. Solutions and buffers were filtered with a 0.22 μm filter and degassed prior to use. The assays were performed on Series S streptavidin (SA) sensor chip (Cytiva). PBS-P+ buffer 10X (0.2 M phosphate buffer with 27 mM KCl, 1.37 M NaCl and 0.5% Surfactant P20 (Tween 20)) was used for the preparation of the assay running buffer (PBS-P+ 1X).
Immobilisation of CD59-biotin: Biotinylated CD59 was immobilised on the surface of a SA chip by non-covalent capture (biotin streptavidin interaction) as per the manufacturer’s instructions. The system was initially primed with running buffer and normalised using BIAnormalizing solution (70% (w/w) glycerol) (Cytiva). Before immobilising the protein, the surface was conditioned with three consecutive one-minute injections of 1 M NaCl in 50 mM NaOH. Biotinylated CD59 (0.5 µg/mL in running buffer) was flowed over the protein (active) channel for different contact times to achieve different immobilisation levels (600–1200 RU). After each protein injection, the needle and injection loop were washed using 50% isopropanol in 1 M NaCl and 50 mM NaOH. A reference channel was prepared by similar treatment; however, running buffer alone rather than CD59-biotin in running buffer was flowed over the chip the same way.
Interaction analysis: Multicycle kinetic and affinity approach was used for the analysis of peptides interactions with CD59. Two-fold serial dilutions of each peptide were prepared in running buffer and were flowed over both the ligand and reference channel using a flow rate (30 μL/min) at 25 °C. A zero concentration was added to each analyte series and three cycles of buffer were run between analytes to restore the baseline. The obtained sensorgrams were analysed using the embedded Biacore S200 Evaluation software. The data were normalised by subtracting RU values of the reference channel and zero concentration of the analyte series. Kinetic rate constants (kon and koff) were determined by fitting the normalised data using the built-in Kinetic analysis model (non-linear regression with a 1:1 Langmuir binding model), KD values were then calculated from the two rate constants ([…]). The KD values were determined again by fitting the normalised data using the built-in Affinity analysis model (1:1 Langmuir binding model).
For orientation: SPR reads the build-up and loss of mass on a sensor chip optically.

The mark [1] stands for this setting: Ala scan of CP-06, SPR, n = 1, read-out: KD.

The structures appear in SMILES notation. Where two headings read alike, the source gives them in different places. Peptide text beside a SMILES is read from it.

With `CC(C)[C@@H]1NC(=O)[C@H](CO)NC(=O)[C@H](CO)NC(=O)[C@H](CCCNC(=N)N)NC(=O)[C@H](CC(N)=O)NC(=O)CNC(=O)[C@H](Cc2c[nH]c3ccccc23)NC(=O)[C@H]([C@@H](C)O)NC(=O)[C@H](Cc2c[nH]c3ccccc23)NC(=O)[C@H](CO)NC(=O)[C@@H](Cc2ccc(O)cc2)NC(=O)CSC[C@@H](C(N)=O)NC(=O)[C@H](C)NC(=O)[C@H](CCCNC(=N)N)NC1=O` [CP-06-G13A] (HELM PEPTIDE1{[O=C(C[*:3])[*:2]].[dY].S.W.T.W.G.N.R.S.S.V.R.A.C.[am]}$PEPTIDE1,PEPTIDE1,1:R3-15:R3$$$V2.0), the Kd under setting [1] is 678 nM.

As to `C[C@@H]1NC(=O)[C@H](CO)NC(=O)[C@@H](Cc2ccc(O)cc2)NC(=O)CSC[C@@H](C(N)=O)NC(=O)[C@H](Cc2ccc(O)cc2)NC(=O)[C@H](Cc2ccc(O)cc2)NC(=O)[C@H](CCC(N)=O)NC(=O)[C@H]([C@@H](C)O)NC(=O)[C@H](CCC(N)=O)NC(=O)[C@H](CCCNC(=N)N)NC(=O)[C@H](CC(N)=O)NC(=O)CNC(=O)[C@H](Cc2c[nH]c3ccccc23)NC1=O` [CP-13] (HELM PEPTIDE1{[O=C(C[*:3])[*:2]].[dY].S.A.W.G.N.R.Q.T.Q.Y.Y.C.[am]}$PEPTIDE1,PEPTIDE1,1:R3-14:R3$$$V2.0), the Kd (SPR, immobilized CD59, average of three technical replicates ± SEM, read-out: KD (nM) ± SEM) is 10.8 ± 0.7 nM.

Regarding `CC(C)[C@@H]1NC(=O)[C@H](CO)NC(=O)[C@H](CO)NC(=O)[C@H](CCCNC(=N)N)NC(=O)[C@H](CC(N)=O)NC(=O)CNC(=O)[C@H](Cc2c[nH]c3ccccc23)NC(=O)[C@H]([C@@H](C)O)NC(=O)[C@H](Cc2c[nH]c3ccccc23)NC(=O)[C@H](CO)NC(=O)[C@H](C)NC(=O)CSC[C@@H](C(N)=O)NC(=O)CNC(=O)[C@H](CCCNC(=N)N)NC1=O` [CP-06-d-Y1A] (HELM PEPTIDE1{[O=C(C[*:3])[*:2]].A.S.W.T.W.G.N.R.S.S.V.R.G.C.[am]}$PEPTIDE1,PEPTIDE1,1:R3-15:R3$$$V2.0), the Kd is 668 nM under setting [1] and 676 nM (Ala scan of CP-06, SPR, n = 1, read-out: PKD (converted)). The “fold decrease in KD (fold loss in binding affinity)” value (Ala scan vs CP-06, SPR, n = 1, Figure 3b and text) is around 60 fold. Further, the “Fold Change” value (fold decrease in KD vs CP-06, Ala scan) worked out at 61.

Consider `CC(C)[C@@H]1NC(=O)[C@H](CO)NC(=O)[C@H](CO)NC(=O)[C@H](CCCNC(=N)N)NC(=O)[C@H](CC(N)=O)NC(=O)CNC(=O)[C@H](Cc2c[nH]c3ccccc23)NC(=O)[C@H](C)NC(=O)[C@H](Cc2c[nH]c3ccccc23)NC(=O)[C@H](CO)NC(=O)[C@@H](Cc2ccc(O)cc2)NC(=O)CSC[C@@H](C(N)=O)NC(=O)CNC(=O)[C@H](CCCNC(=N)N)NC1=O` [CP-06-T4A] (HELM PEPTIDE1{[O=C(C[*:3])[*:2]].[dY].S.W.A.W.G.N.R.S.S.V.R.G.C.[am]}$PEPTIDE1,PEPTIDE1,1:R3-15:R3$$$V2.0), for which the Kd under setting [1] amounted to 18 nM.

For `CC(C)[C@@H]1NC(=O)[C@H](CO)NC(=O)[C@H](CO)NC(=O)[C@H](CCCNC(=N)N)NC(=O)[C@H](CC(N)=O)NC(=O)CNC(=O)[C@H](Cc2c[nH]c3ccccc23)NC(=O)[C@H]([C@@H](C)O)NC(=O)[C@H](Cc2c[nH]c3ccccc23)NC(=O)[C@H](C)NC(=O)[C@@H](Cc2ccc(O)cc2)NC(=O)CSC[C@@H](C(N)=O)NC(=O)CNC(=O)[C@H](CCCNC(=N)N)NC1=O` [CP-06-S2A] (HELM PEPTIDE1{[O=C(C[*:3])[*:2]].[dY].A.W.T.W.G.N.R.S.S.V.R.G.C.[am]}$PEPTIDE1,PEPTIDE1,1:R3-15:R3$$$V2.0), the Kd under setting [1] came to 13 nM.

Take `CC(C)[C@@H]1NC(=O)[C@H](CO)NC(=O)[C@H](CO)NC(=O)[C@H](CCCNC(=N)N)NC(=O)[C@H](CC(N)=O)NC(=O)[C@H](C)NC(=O)[C@H](Cc2c[nH]c3ccccc23)NC(=O)[C@H]([C@@H](C)O)NC(=O)[C@H](Cc2c[nH]c3ccccc23)NC(=O)[C@H](CO)NC(=O)[C@@H](Cc2ccc(O)cc2)NC(=O)CSC[C@@H](C(N)=O)NC(=O)CNC(=O)[C@H](CCCNC(=N)N)NC1=O` [CP-06-G6A] (HELM PEPTIDE1{[O=C(C[*:3])[*:2]].[dY].S.W.T.W.A.N.R.S.S.V.R.G.C.[am]}$PEPTIDE1,PEPTIDE1,1:R3-15:R3$$$V2.0): the Kd under setting [1] came out at 235 nM.

In the case of `CC(C)[C@@H]1NC(=O)[C@H](CO)NC(=O)[C@H](CO)NC(=O)[C@H](CCCNC(=N)N)NC(=O)[C@H](CC(N)=O)NC(=O)CNC(=O)[C@H](Cc2c[nH]c3ccccc23)NC(=O)[C@H]([C@@H](C)O)NC(=O)[C@H](Cc2c[nH]c3ccccc23)NC(=O)[C@H](CO)NC(=O)[C@@H](Cc2ccc(O)cc2)NC(=O)CSC[C@@H](C(=O)NCC(=O)N[C@@H](CO)C(=O)NCC(=O)N[C@@H](CO)C(=O)NCC(=O)N[C@@H](CO)C(=O)N[C@@H](CCCCN)C(N)=O)NC(=O)CNC(=O)[C@H](CCCNC(=N)N)NC1=O` [CP-06-GSGSGSK] (HELM PEPTIDE1{[O=C(C[*:3])[*:2]].[dY].S.W.T.W.G.N.R.S.S.V.R.G.C.G.S.G.S.G.S.K.[am]}$PEPTIDE1,PEPTIDE1,1:R3-15:R3$$$V2.0), the Kd (SPR, Figure S2T, read-out: KD) is 18 nM.
